The text below walks through data of US10377998B2, “CRISPR-CAS systems and methods for altering expression of gene products, structural information and inducible modular CAS enzymes” (The Broad Institute, Inc., priority 2013, dated 2019).

Test [1] has as its system Factor VII. The settings on record: LNP siRNA systems containing these lipids, hepatocytes in vivo; cited from earlier work.
A short description of test [2]: Double nicking indel formation with sgRNA pairs. It counts as cell-based. The settings on record: substitution of Cas9n in double nicking, eukaryotic system. The text has this:
Aspects of the invention relate to the expression of the gene product being decreased or a template polynucleotide being further introduced into the DNA molecule encoding the gene product or an intervening sequence being excised precisely by allowing the two 5′ overhangs to reanneal and ligate or the activity or function of the gene product being altered or the expression of the gene product being increased. In an embodiment of the invention, the gene product is a protein. Only sgRNA pairs creating 5′ overhangs with less than 8 bp overlap between the guide sequences (offset greater than −8 bp) were able to mediate detectable indel formation. […] Nonetheless, a pair of sgRNAs that will generate a 5′ overhang with Cas9n should in principle generate the corresponding 3′ overhang instead, and double nicking. […] Accordingly, in some embodiments, a recombination template is also provided. A recombination template may be a component of another vector as described herein, contained in a separate vector, or provided as a separate polynucleotide. In some embodiments, a recombination template is designed to serve as a template in homologous recombination, such as within or near a target sequence nicked or cleaved by a CRISPR enzyme as a part of a CRISPR complex. […]

Take `CCCCC/C=C\C/C=C\CCCCCCCC(=O)OCC(CN(C)C)OC(=O)CCCCCCC/C=C\C/C=C\CCCCC` (centres unmarked) [DLinDAP, 1,2-dilineoyl-3-dimethylammonium-propane]: the “gene silencing potency series” value in test [1] was “DLinKC2-DMA>DLinKDMA>DLinDMA>>DLinDAP”.
Regarding `CCCCC/C=C\C/C=C\CCCCCCCCC1(CCCCCCCC/C=C\C/C=C\CCCCC)OCC(CCN(C)C)O1` (centres unmarked) [DLinKC2-DMA, 1,2-dilinoleyl-4-(2-dimethylaminoethyl)-[1,3]-dioxolane], the “gene silencing potency series” value in test [1] was “DLinKC2-DMA>DLinKDMA>DLinDMA>>DLinDAP”.
Take Cas9H840A: Cas9 with H840A mutation: the “indel formation with sgRNA pair” value in test [2] is “no indel formation is observed”.
For the compound “1,2-dilinoleyloxy-keto-N,N-dimethyl-3-aminopropane [DLinKDMA]”, the “gene silencing potency series” value in test [1] is “DLinKC2-DMA>DLinKDMA>DLinDMA>>DLinDAP”.
Consider `CCCCC/C=C\C/C=C\CCCCCCCCOCC(CN(C)C)OCCCCCCCC/C=C\C/C=C\CCCCC` (centres unmarked) [DLinDMA, 1,2-dilinoleyloxy-3-N,N-dimethylaminopropane], for which, in test [1], the “gene silencing potency series” value is reported as “DLinKC2-DMA>DLinKDMA>DLinDMA>>DLinDAP”.
